This passage reports inhibition and Activity results from ChEMBL document CHEMBL5715954, “Silencing c-Myc translation as a therapeutic strategy through targeting PI3Kδ and CK1ε in hematological malignancies” (Blood, 2017).

Calls of active or inactive are those of the source. The rule behind the calls is not given here. Some results are limits rather than exact numbers.

Data set [1] concerns the target T1, mTORC1 (Homo sapiens) (UniProt P42345+Q8N122+Q9BVC4). The data set is described as follows: Inhibition of mTORC1 in human CLL cells assessed as reduction in c-Myc expression at 5 uM measured after 24 hrs in presence of bortezomib by Western blot analysis. It is filed as cell-based. Particulars: CLL cell.
Data set [2] addresses T1, mTORC1 (Homo sapiens). Nature of the data set: Inhibition of mTORC1 in human SLL cells assessed as reduction in c-Myc expression at 5 uM measured after 24 hrs in presence of bortezomib by Western blot analysis. It is filed as cell-based.
Data set [3] concerns the target T1, mTORC1 (Homo sapiens). The data set is described as follows: Inhibition of mTORC1 in human PF-382 cells assessed as reduction in c-Myc expression at 5 uM measured after 24 hrs in presence of bortezomib by Western blot analysis. The format is cell-based.
The target of data set [4] is T1, mTORC1 (Homo sapiens). Nature of the data set: Inhibition of mTORC1 in human SLL cells assessed as reduction in 4E-BP1 phosphorylation at 5 uM measured after 24 hrs in presence of bortezomib by Western blot analysis. It is filed as cell-based.
For data set [5], the target named is T1, mTORC1 (Homo sapiens). The data set is described as follows: Inhibition of mTORC1 in human PF-382 cells assessed as reduction in 4E-BP1 phosphorylation at 5 uM measured after 24 hrs in presence of bortezomib by Western blot analysis. It is filed as cell-based. (In western blotting, separated proteins are transferred to a membrane and probed.)
The next data set concerns SLL. Nature of the data set: Induction of apoptosis in human SLL cells assessed as increase in cleaved-PARP expression at 5 uM measured after 24 hrs in presence of bortezomib by Western blot analysis. It is filed as functional, cell-based.
The test system of another data set is MZL. The data set is described as follows: Induction of apoptosis in human MZL cells assessed as increase in cleaved-PARP expression at 5 uM measured after 24 hrs in presence of bortezomib by Western blot analysis. It is filed as functional, cell-based.
Data set [6] deals with Myc proto-oncogene protein (Homo sapiens) (UniProt P01106). Nature of the data set: Inhibition of c-Myc in human LY7 cells assessed as reduction in E2F1 expression at 3 uM incubated for 24 hrs in presence of bortezomib by Western blot analysis. The format is cell-based.
Data set [7] in a line: Cytotoxicity against human PBMC assessed as reduction in cell viability at 2.5 to 5 uM measured after 24 to 72 hrs in presence of carfilzomib by cell-titer glo assay. It is filed as toxicity, cell-based. Particulars: dose lower 2.5 µM, time lower 24 hrs, dose upper 5 µM, time upper 72 hrs.
Data set [8] has as its target T1, mTORC1 (Homo sapiens). Nature of the data set: Inhibition of mTORC1 in human NCI-H929 cells assessed as reduction in 4E-BP1 phosphorylation at 5 uM measured after 24 hrs by Western blot analysis. It is filed as cell-based.
Data set [9] concerns the target T1, mTORC1 (Homo sapiens). Nature of the data set: Inhibition of mTORC1 in human CLL cells assessed as reduction in c-Myc expression at 5 uM measured after 24 hrs in presence of carfilzomib by Western blot analysis. It is filed as cell-based. The settings on record: CLL cell.
Data set [10] concerns the target T2, Phosphatidylinositol 4,5-bisphosphate 3-kinase catalytic subunit delta isoform (Homo sapiens) (UniProt O00329).
T2 sequence (whole entry): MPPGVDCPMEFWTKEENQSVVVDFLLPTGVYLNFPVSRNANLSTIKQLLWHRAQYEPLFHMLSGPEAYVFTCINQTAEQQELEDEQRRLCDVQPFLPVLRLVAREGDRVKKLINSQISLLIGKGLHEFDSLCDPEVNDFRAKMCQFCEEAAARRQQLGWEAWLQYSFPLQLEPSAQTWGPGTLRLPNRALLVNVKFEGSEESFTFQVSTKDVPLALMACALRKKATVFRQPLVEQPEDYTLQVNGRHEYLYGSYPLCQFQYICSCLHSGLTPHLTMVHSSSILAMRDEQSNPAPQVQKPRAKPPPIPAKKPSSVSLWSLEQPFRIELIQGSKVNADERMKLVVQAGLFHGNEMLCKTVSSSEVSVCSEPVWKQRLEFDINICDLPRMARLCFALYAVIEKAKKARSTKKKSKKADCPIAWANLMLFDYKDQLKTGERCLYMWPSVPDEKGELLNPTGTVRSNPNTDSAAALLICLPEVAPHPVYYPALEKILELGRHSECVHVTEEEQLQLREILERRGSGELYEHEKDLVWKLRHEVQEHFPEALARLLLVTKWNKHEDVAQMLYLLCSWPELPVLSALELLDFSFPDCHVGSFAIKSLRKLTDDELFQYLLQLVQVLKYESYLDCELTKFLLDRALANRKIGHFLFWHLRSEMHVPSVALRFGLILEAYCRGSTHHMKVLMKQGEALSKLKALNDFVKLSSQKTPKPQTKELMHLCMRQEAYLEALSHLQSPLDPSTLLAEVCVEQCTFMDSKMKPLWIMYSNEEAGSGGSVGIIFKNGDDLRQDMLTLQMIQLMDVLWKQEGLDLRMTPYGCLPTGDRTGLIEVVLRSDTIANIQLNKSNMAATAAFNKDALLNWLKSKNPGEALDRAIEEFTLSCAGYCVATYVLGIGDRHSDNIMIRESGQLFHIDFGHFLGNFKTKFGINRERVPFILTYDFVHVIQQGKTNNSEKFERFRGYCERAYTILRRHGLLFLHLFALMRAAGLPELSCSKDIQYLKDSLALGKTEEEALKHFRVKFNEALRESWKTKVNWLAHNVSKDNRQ
Nature of the data set: Inhibition of PI3Kdelta in human DB cells assessed as reduction in AKT phosphorylation at S473 residue measured after 4 hrs. It is filed as cell-based. The settings on record: dose 10-10000 nM.

Data set [11] has as its target T2, Phosphatidylinositol 4,5-bisphosphate 3-kinase catalytic subunit delta isoform (Homo sapiens). Nature of the data set: Inhibition of PI3Kdelta in human HL-60 cells assessed as reduction in AKT phosphorylation at S473 residue at 1 uM measured after 4 hrs relative to control. It is filed as cell-based.
Data set [12] shares this target. The data set is described as follows: Inhibition of PI3Kdelta in human THP-1 cells assessed as reduction in AKT phosphorylation at S473 residue at 1 uM measured after 4 hrs relative to control. It is filed as cell-based.
The target is the same in data set [13]. Nature of the data set: Inhibition of PI3Kdelta in human Jurkat cells assessed as reduction in AKT phosphorylation at S473 residue at 1 uM measured after 4 hrs relative to control. It is filed as cell-based.
The target in data set [14] is T1, mTORC1 (Homo sapiens). Nature of the data set: Inhibition of mTORC1 in human LY7 cells assessed as reduction in c-Myc mRNA expression at 3 uM measured after 24 hrs in presence of carfilzomib. It is filed as cell-based.
Data set [15] addresses T1, mTORC1 (Homo sapiens). Nature of the data set: Inhibition of mTORC1 in human OCILY7 cells transfected with c-Myc-expressing plasmid (M+) assessed as reduction in endogenous c-Myc expression at 3 to 5 uM incubated for 24 hrs in presence of carfilzomib by Western blot analysis. Particulars: dose 3-5 µM. The format is cell-based.
For a further data set, the system named is OCI-Ly7. Nature of the data set: Cytotoxicity against human OCILY7 cells transfected with c-Myc-expressing plasmid (M+) assessed as reduction in cell viability at 3 to 5 uM incubated for 24 hrs in presence of carfilzomib by cell-titer glo assay. The format is functional, cell-based. Particulars: dose 3-5 µM.
For data set [16], the system named is NCI-H929. The data set is described as follows: Cytotoxicity against human NCI-H929 cells transduced with an eIF4E-overexpressing plasmid assessed as reduction in cell viability at 5 uM incubated for 24 hrs in presence of carfilzomib by cell-titer glo assay. The format is functional, cell-based.
Data set [17] has as its system NCI-H929. Nature of the data set: Cytotoxicity against human NCI-H929 cells transduced with an empty vector assessed as reduction in cell viability at 5 uM incubated for 24 hrs in presence of carfilzomib by cell-titer glo assay. The format is functional, cell-based.
Data set [18] addresses Myc proto-oncogene protein (Homo sapiens) (UniProt P01106). Nature of the data set: Inhibition of c-Myc in human LY7 cells assessed as reduction in E2F1 expression at 3 uM incubated for 24 hrs in presence of carfilzomib by Western blot analysis. The format is cell-based.
Data set [19] is described as follows: Inhibition of PI3Kdelta/CK1epsilon in human OCILY7 cells transfected with c-myc-5'-UTR-luciferase construct assessed as reduction in c-myc translation at 15 uM incubated for 24 hrs by luciferase reporter gene assay relative to control. The settings on record: OCI-Ly7.

T1 sequence (Q8N122 whole entry, looked up, other chains not shown): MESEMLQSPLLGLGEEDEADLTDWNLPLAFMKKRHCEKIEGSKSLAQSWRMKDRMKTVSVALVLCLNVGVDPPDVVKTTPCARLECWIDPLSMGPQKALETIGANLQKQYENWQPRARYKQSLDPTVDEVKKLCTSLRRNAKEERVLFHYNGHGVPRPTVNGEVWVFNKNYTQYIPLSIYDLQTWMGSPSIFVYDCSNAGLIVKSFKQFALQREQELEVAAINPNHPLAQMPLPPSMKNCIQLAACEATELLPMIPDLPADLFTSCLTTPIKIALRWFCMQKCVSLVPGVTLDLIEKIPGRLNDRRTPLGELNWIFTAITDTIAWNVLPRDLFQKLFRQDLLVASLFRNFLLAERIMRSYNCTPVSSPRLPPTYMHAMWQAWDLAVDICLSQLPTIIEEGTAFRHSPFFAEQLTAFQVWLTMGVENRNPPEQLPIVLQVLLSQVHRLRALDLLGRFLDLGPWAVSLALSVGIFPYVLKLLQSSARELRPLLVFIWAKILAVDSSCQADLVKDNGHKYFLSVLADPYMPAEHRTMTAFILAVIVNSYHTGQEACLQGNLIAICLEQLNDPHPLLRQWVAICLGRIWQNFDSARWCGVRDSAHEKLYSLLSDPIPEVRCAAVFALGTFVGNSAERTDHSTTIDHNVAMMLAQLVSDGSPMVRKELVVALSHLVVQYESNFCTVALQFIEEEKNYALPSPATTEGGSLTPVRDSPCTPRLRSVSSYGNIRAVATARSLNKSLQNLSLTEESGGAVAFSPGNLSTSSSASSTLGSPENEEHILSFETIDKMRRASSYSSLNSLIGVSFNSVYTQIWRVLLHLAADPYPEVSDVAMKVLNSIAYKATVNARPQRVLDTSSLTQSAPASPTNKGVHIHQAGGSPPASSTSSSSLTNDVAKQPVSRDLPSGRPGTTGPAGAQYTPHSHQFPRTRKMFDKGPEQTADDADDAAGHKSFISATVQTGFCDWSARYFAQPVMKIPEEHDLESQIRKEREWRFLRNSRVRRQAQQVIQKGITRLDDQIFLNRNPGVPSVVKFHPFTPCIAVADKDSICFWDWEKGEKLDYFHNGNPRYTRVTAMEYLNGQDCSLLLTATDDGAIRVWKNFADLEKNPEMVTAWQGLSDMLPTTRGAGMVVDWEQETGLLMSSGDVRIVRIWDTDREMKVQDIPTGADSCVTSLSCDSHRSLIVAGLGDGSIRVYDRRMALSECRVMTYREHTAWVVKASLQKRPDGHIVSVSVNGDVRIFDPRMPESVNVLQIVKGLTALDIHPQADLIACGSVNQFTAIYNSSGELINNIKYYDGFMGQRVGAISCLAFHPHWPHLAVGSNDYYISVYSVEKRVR
T1 sequence (Q9BVC4 whole entry, looked up, other chains not shown): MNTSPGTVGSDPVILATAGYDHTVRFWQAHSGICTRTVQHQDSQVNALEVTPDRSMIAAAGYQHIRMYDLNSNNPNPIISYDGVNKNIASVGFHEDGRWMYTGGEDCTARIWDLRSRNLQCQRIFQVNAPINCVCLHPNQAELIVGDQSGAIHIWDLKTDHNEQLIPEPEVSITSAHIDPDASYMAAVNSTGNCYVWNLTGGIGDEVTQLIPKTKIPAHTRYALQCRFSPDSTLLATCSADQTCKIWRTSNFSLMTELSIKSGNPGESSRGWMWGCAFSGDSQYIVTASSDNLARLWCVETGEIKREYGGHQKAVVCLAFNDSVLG
Myc proto-oncogene protein (Homo sapiens), sequence (P01106 whole entry): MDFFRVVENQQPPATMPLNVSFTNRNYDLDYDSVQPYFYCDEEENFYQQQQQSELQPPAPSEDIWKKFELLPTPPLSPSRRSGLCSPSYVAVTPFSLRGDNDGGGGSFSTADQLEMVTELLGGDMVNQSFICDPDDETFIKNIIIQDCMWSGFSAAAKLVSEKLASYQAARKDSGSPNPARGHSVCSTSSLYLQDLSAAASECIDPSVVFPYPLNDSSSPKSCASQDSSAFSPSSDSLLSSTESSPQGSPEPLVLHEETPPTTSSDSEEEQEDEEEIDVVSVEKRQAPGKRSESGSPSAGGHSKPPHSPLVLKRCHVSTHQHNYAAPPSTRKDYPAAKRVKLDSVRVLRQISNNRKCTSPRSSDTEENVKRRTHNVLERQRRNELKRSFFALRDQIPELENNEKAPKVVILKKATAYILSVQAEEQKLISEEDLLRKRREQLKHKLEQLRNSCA

In general, inhibition refers to the percentage by which the read-out fell short of the control. Consider `CC[C@H](Nc1ncnc2[nH]cnc12)c1nc2cccc(F)c2c(=O)n1-c1ccccc1`, for which the inhibition result (on mTORC1 (Homo sapiens) [1]; on mTORC1 (Homo sapiens) [2]; at mTORC1 (Homo sapiens) [3]; on mTORC1 (Homo sapiens) [4]; at mTORC1 (Homo sapiens) [5]; in [6]) was “inactive” in each case. For the same compound, the result in the data set on SLL and in the data set on MZL was Active.

For `CC(C)Oc1ccc(-c2nn([C@@H](C)c3oc4ccc(F)cc4c(=O)c3-c3cccc(F)c3)c3ncnc(N)c23)cc1F` [UMBRALISIB], in [7], the Activity entry is recorded as “Non-Toxic”. Also, the inhibition result on mTORC1 (Homo sapiens) [8], at mTORC1 (Homo sapiens) [14] and on mTORC1 (Homo sapiens) [15] was “inactive” in each case. Moreover, the inhibition entry (on mTORC1 (Homo sapiens) [9]; in data set [18]) was “Active” in each case. Moreover, the inhibition entry in data set [10] is “Dose-Dependent Effect”; in [11], 43%; in [12], 43%; in data set [13] it was 43%. Further, the result in the data set on OCI-Ly7 and with NCI-H929 [16] was inactive. Further, in the data set on NCI-H929 [17], the outcome was Active. Also, in [19], the inhibition at 15 µM was above 50%.
